Assay results reported in patent publication US20030017976A1, “Therapeutic properties of liposome-encapsulated immunomodulators” (priority 1998, published 2003).
Marks after values point to notes of the source that are not given here.

What was measured:
[1] = test system: human blood monocytes; experiment: ELISAs for TNF-α, IL-1β and IL-6 in human blood monocytes; type: cell-based
Experimental: Blood-cells buff coats were obtained on the day of collection from the Gulf Coast Regional Blood Center (Houston, Tex.). The buffy coats were diluted with HBSS and layered on to 15 ml of prescreened entotoxin-free lymphocyte separation medium (Ficoll-Hypaque; density: 1.077). After 10 min of centrigugation at 1500×g, the mononuclear fractions were collected, washed once, and resuspended in 20 ml of elutriation medium (2% human albumin-100 U/mi penicillin and 100 μg/ml streptomycin in PBS). Monocyte-rich fractions were isolated by countercurrent elutriation using a JE-6B elutriation rotator (B3eckman) as described in detail previously (Fidler, I. et al. Prog. Clin. Biol. Res. (1989) 288:169). At a speed of 3000 rpm and flow rate of 41 ml/min, the monocyte fraction was obtained; it contained >90-95% monocytes as identified by nonspecific esterase staining morphological examination; they were >95% viable as measured by the trypan blue exclusion test. The cells were incubated in serum-free EMEM for 18 h prior to assays.
After overnight incubation in serum-free EMEM, monocytes plated at the density of 1×10^5/38-mm^2well /200 μl of EMEM (96-well plates) were treated as indicated in the Results section. The culture supernatants were harvested and used immediately or stored at −70° C. The supernatants were diluted at 1:5 or 1:10 and assayed for cytokines using ELISA kits according to the manufacturer's instructions.

[2] = test system: human monocytes; experiment: Western blot of tyrosine phosphorylation, JNK1 band shift, MAP kinase activation in monocytes; type: cell-based; conditions: 20 min
Experimental: After two washes with PBS containing 1 mM Na3 VO4 and 5 mM EDTA, the cells were scraped into 0.1 ml lysis buffer (1% Triton X-100, 20 mM Tris pH 8.0, 137 MM NaCl, 10% glycerol, 1 mM Na3 VO4, 2 mM EDTA, 1 mM PMSF, 20 μM leupeptin, 0.15 U/ml aprotinin). The lysate was placed on ice for 20 min and then centrifuged at 14,000 rpm for 10 min at 4° C. The samples (50 μg) were mixed with sample buffer (62.5 mM Tris/HCl, pH 6.8, 2.3% SDS, 100 mM DTT, and 0.05% bromophenol blue), boiled and, separated on 10% SDS-PAGE. The protein was then transferred onto 0.45 μm nitrocellulose membranes. The filter was blocked with 3% BSA and 1% ovalbumin (ICN Biomedicals, Inc.) in TBS (20 mM Tris/HCl, pH 7.5, 150 mM NaCl), probed with antibodies as indicated in the Results in TTBS (TBS containing 0.1% Tween 20), incubated with a second antibody in the buffer, and visualized by the ECL Western blotting detection system (Dong, Z., et al. J Exp. Med. (1993) 177:1071; Dong, Z. et al. J. Leukoc. Biol. (1993) 58:725).

[3] = test system: C57BL/6 mice; experiment: Prevention of CPT-11 induced intestinal damage and morbidity by oral immunomodulator; type: in vivo, mouse; conditions: oral saline or JBT3002 0.1, 1.0 and 10 μg/dose in PC liposomes, then CPT-11 100 mg/kg i.p. 4 days
Experimental: Experimental Design and Methods. […] Tissue was harvested 7 days after the last injection (small intestine and colon distal to the cecum). Histology was prepared. Some mice were monitored for the presence of drug toxicity.
Example 6 has shown that 100, 150, and 200 mg/kg at 4 consecutive i.p. administrations are highly toxic to C57BL/6 mice.

[4] = test system: TG-Mø from C57BL/6 mice; experiment: NO production in TG macrophages by free-form and tablet JBT 3002; type: cell-based, mouse; conditions: 24 hr
Experimental: Preparation of tablet to free-form in water. Tablet placed in 10 ml sterile, pyrogen-free water for 2-3 min with shaking at room temperature, then 10 ml more water added using Lot PCOO2.115. At 100 μg/tablet, this gave 5 ug/ml active material. Solution opaque with “carrier”-appearing material. Settled to bottom. Placed at 37° C. for about 5 min. pH tested at 8.0. Two aliquots of 10 ml taken. One aliquot was taken to pH 1.5 by a single drop of concentrated HCl. Both samples were placed in a water bath at 37° C. for 30 min. The low pH sample was restored to pH 7.7 with NaOH (took about 5 drops of the NaOH, IN solution). The samples were brought to 50 ml by addition of water, and the final pH was 8.0 for the original and 7.43 for the low pH sample. The solutions were still slightly opaque and filtering with a 0.2 micron filter cleared the solution. Aliquots of about 25 ml were measured in an assay for NO production by macrophages and testing of the working dilution for endotoxin.

[5] = test system: IL-15; experiment: Ileum and liver lesion histology, BrdUrd and IL-15 expression after JBT 3002 and CPT-11; type: in vivo, mouse; conditions: mouse, in vivo
Experimental: BALB/c mice were injected with CT-26 colon cancer cells into the spleen. […] Four days after the last injection of CPT-11, some mice were killed and their ileum was harvested and prepared for histology, immunohistochemistry, and molecular biology analyses.

[6] = test system: IL-15; experiment: RT-PCR of IL-15 in PEM and IEC6 cells; type: cell-based
From the text: To determine whether macrophages or epithelial cells respond to JBT 3002 by upregulating IL-1 5, the RT-PCR technique was used and the results are shown in FIG. 23.

[7] = test system: CT-26 colon carcinoma; experiment: Therapy of experimental liver metastasis of CT-26 colon carcinoma with CPT-11 and oral JBT 3002
[8] = Table 15, oral JBT 3002 0.05 μg/dose 3 consecutive days and/or CPT-11 100 mg/kg 4 daily i.p., day 21
[9] = Table 16, oral JBT3002 0.05 μg dose thrice weekly 3 weeks and/or CPT-11 100 mg/kg i.p. once a week, day 24

“N-hexadecanol-S-[2(R)-3-diodecanoyloxypropyl]-L-cysteinyl-L-alanyl-D-isoglutaminyl-glycyl-taurine sodium salt [JBT3002]” was tested, and the “incubation time at which TNF-α protein was detected” value ([1]; free-form JBT3002 1 ng/ml or MLV-JBT3002 100 nmol/well of 1 mg/300 μmol lipid) was 2 h, the “concentration range inducing TNF-α production” value ([1]; monocytes treated for 8 h) was 0.001 to 10 ng/mL and the “serum dependence of cytokine production” value ([1]; serum-free EMEM vs 5% FBS) was “not significantly altered in the absence of serum”. For the same substance, the “potency in triggering intracellular signaling pathways” value [2] was “significantly more potent than LPS”, the “intestinal toxicity (histology)” value [3] was “the intestines were normal” and the nitrite ([4]; Table 17, JBT 0.003 ng/ml, IFN-γ (10 U/ml)) was 17.5 µM. It also gave a nitrite ([4]; Table 17, JBT 0.003 ng/ml, medium) of 0 µM, a nitrite ([4]; Table 17, JBT 0.016 ng/ml, IFN-γ (10 U/ml)) of 33.7 µM and a nitrite ([4]; Table 17, JBT 0.016 ng/ml, medium) of 0 µM. For the same substance, the nitrite ([4]; Table 17, JBT 0.08 ng/ml, IFN-γ (10 U/ml)) was 41 µM, the nitrite ([4]; Table 17, JBT 0.08 ng/ml, medium) was 0 µM and the nitrite ([4]; Table 17, JBT 0.4 ng/ml, IFN-γ (10 U/ml)) was 44.7 µM. For the same substance, the nitrite ([4]; Table 17, JBT 0.4 ng/ml, medium) was 0 µM, the nitrite ([4]; Table 17, JBT 2 ng/ml, IFN-γ (10 U/ml)) was 53.1 µM and the nitrite ([4]; Table 17, JBT 2 ng/ml, medium) was 0 µM. For the same substance, the nitrite ([4]; Table 17, JBT 10 ng/ml, IFN-γ (10 U/ml)) was 60.9* μM, the nitrite ([4]; Table 17, JBT 10 ng/ml, medium) was 8.4 µM and the nitrite ([4]; Table 18, JBT3002 0.0001 ng/ml, 10 U/ml IFN-γ) was 0. The nitrite ([4]; Table 18, JBT3002 0.0001 ng/ml, medium) was 0, the nitrite ([4]; Table 18, JBT3002 0.001 ng/ml, 10 U/ml IFN-γ) was 8.5 and the nitrite ([4]; Table 18, JBT3002 0.001 ng/ml, medium) was 0. For the same substance, the nitrite ([4]; Table 18, JBT3002 0.01 ng/ml, 10 U/ml IFN-γ) was 19.5, the nitrite ([4]; Table 18, JBT3002 0.01 ng/ml, medium) was 0 and the nitrite ([4]; Table 18, JBT3002 0.1 ng/ml, 10 U/ml IFN-γ) was 27.7. The nitrite ([4]; Table 18, JBT3002 0.1 ng/ml, medium) was 0, the nitrite ([4]; Table 18, JBT3002 1 ng/ml, 10 U/ml IFN-γ) was 37.7 and the nitrite ([4]; Table 18, JBT3002 1 ng/ml, medium) was 0. For the same substance, the nitrite ([4]; Table 18, JBT3002 10 ng/ml, 10 U/ml IFN-γ) was 47.1, the nitrite ([4]; Table 18, JBT3002 10 ng/ml, medium) was 0.5 and the “expression of IL-15 in the ileum” value [5] was “restores or augments this expression”. The “IL-15 expression in response to JBT 3002 (RT-PCR)” value [6] was “Peritoneal exudate macrophages (PEM), but not intestinal cells (IEC6), upregulate IL-15 expression”, the “dose producing similar therapeutic effects as 1.0 μg/dose of MLV-JBT 3002” value ([7]; Table 11) was 0.01 μg/dose and the “Liver metastasis Incidence” value [7, 8] was 9/10. The Liver weight [7, 8] was 1.6 ± 0.2^e g, the “Spleen tumor Incidence” value [7, 8] was 10/10 and the “Spleen tumor Mean tumor volume” value [7, 8] was 88 ± 34^f mm^3. For the same substance, the “Liver metastasis Incidence” value [7, 9] was 9/10, the Liver weight [7, 9] was 4.2 ± 1.6 g and the “Spleen tumor Incidence” value [7, 9] was 8/10. For the same substance, the “Spleen tumor Mean tumor volume” value [7, 9] was 241 ± 84 mm^3 and the “potency relative to liposomal formulation” value ([7]; Tables 12 and 14) was “more potent than liposomal formulation”.
